# Test: recombinant barcode read abundance after kanamycin selection (control-corrected) (log10(CPM+1)); higher = more efficient recombination; sequences stand for … in AGTGCAGAGAAAATCGGCCAGTTTTCTCTGCCTGCAGTCCGCATGCCGT…AGATTTATGCAGCGGACTGCCTTTCTCCCAAAGTGATAAACCGGACAGTATCATGGACCGGTTTTCCCGGTAATCCGTATTTGCAAGGTTGGTTTCACT; site = the 11-nt target
# Summary of the method: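 Pooled oligos, each joining a target to an IS621 bridge RNA target-binding loop, were cloned and co-electroporated with a donor plasmid into E. coli. Selective plates carried chloramphenicol/ampicillin/kanamycin and 0.1 mM IPTG, while chloramphenicol/ampicillin LB agar served as control, with two replicates of each. Recombination efficiency rests on averaged, control-corrected counts per million of barcodes at recombinant junctions, shown as log10(CPM+1).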
# 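Note: IS621 recombinase and bridge RNA in Escherichia coli cells.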
row,Sequence,recombinant barcode read abundance (log10)
1,ATCCATCCTTGGGTTCTAACCTGTTGCCT (site ATCCAGCCTAG),0.0583
2,ATCCATCCTTGGGTTCTAACCTGTTGCCT (site ATCCATCCTAG),0.969
3,ATCCCATCTTGGGTTCTAACCTGTTGCCT (site ATACCATCTAG),0.383
4,ATCCCATCTTGGGTTCTAACCTGTTGCCT (site ATCCCATCTAG),0.619
5,ATCCCATCTTGGGTTCTAACCTGTTGCCT (site ATGCCATCTAG),0.0333
6,ATCCCATCTTGGGTTCTAACCTGTTGCCT (site ATTCCATCTAG),0.0512
7,ATCCCCTCTTGGGTTCTAACCTGTTGCCT (site ATCCCCTCTAG),2.53
8,ATCCCCTCTTGGGTTCTAACCTGTTGCCT (site ATCGCCTCTAG),0.031
9,ATCGAGTCTTGGGTTCTAACCTGTTGCCT (site AACGAGTCTAG),0.139
10,ATCGAGTCTTGGGTTCTAACCTGTTGCCT (site ACCGAGTCTAG),1.11
11,ATCGAGTCTTGGGTTCTAACCTGTTGCCT (site AGCGAGTCTAG),0.734
12,ATCGAGTCTTGGGTTCTAACCTGTTGCCT (site ATCGAGTCTAG),1.56
13,ATCGATGCTTGGGTTCTAACCTGTTGCCT (site ATCGATGCTAG),0.545
14,ATCGATGCTTGGGTTCTAACCTGTTGCCT (site ATCTATTCTAG),0.0828
15,ATCGCCTCTTGGGTTCTAACCTGTTGCCT (site ATCCCCTCTAG),0.328
16,ATCGCCTCTTGGGTTCTAACCTGTTGCCT (site ATCGCCTCTAG),0.742
17,ATCGGAGCTTGGGTTCTAACCTGTTGCGG (site ATCGGAGCTCA),0.135
18,ATCGGAGCTTGGGTTCTAACCTGTTGCGG (site ATCGGAGCTCC),1.7
19,ATCGGAGCTTGGGTTCTAACCTGTTGCGG (site ATCGGAGCTCG),0.424
20,ATCGGAGCTTGGGTTCTAACCTGTTGCGG (site ATCGGAGCTCT),0.592
21,ATCGTATCTTGGGTTCTAACCTGTTGCGC (site ATCGTATCTGC),0.068
22,ATCGTATCTTGGGTTCTAACCTGTTGCGC (site GGGCAGGCTAG),0.832

row,Sequence,recombinant barcode read abundance (log10)
1,ATCTCAACTTGGGTTCTAACCTGTTGCCT (site ACCTTAACTAG),0.0254
2,ATCTCAACTTGGGTTCTAACCTGTTGCCT (site ATCTCAACTAG),0.118
3,ATCTTACCTTGGGTTCTAACCTGTTGCCG (site ATCTTACCTCG),0.448
4,ATCTTACCTTGGGTTCTAACCTGTTGCCG (site GTCTTCCCTCG),0.11
5,ATCTTATCTTGGGTTCTAACCTGTTGCCT (site ATCTTAACTAG),0.0526
6,ATCTTATCTTGGGTTCTAACCTGTTGCCT (site ATCTTACCTAG),0.262
7,ATCTTATCTTGGGTTCTAACCTGTTGCCT (site ATCTTAGCTAG),0.0977
8,ATCTTATCTTGGGTTCTAACCTGTTGCCT (site ATCTTATCTAG),0.208
9,ATGAACCCTTGGGTTCTAACCTGTTGCGT (site ATGAACCCTAC),1.88
10,ATGAACCCTTGGGTTCTAACCTGTTGCGT (site TTGAACCCTAC),0.659
11,ATGAAGCCTTGGGTTCTAACCTGTTGCTT (site ATCAAGCCTAA),0.0285
12,ATGAAGCCTTGGGTTCTAACCTGTTGCTT (site ATGAAGCCTAA),0.107
13,ATGACTACTTGGGTTCTAACCTGTTGCTC (site ATGACTACTGA),0.423
14,ATGACTACTTGGGTTCTAACCTGTTGCTC (site ATGACTACTTA),0.135
15,ATGAGGTCTTGGGTTCTAACCTGTTGCTC (site ATGAGCTCTTA),0.194
16,ATGAGGTCTTGGGTTCTAACCTGTTGCTC (site ATGAGGTCTGA),1.43
17,ATGATTACTTGGGTTCTAACCTGTTGCCT (site ATAGTTACTAG),0.0836
18,ATGATTACTTGGGTTCTAACCTGTTGCCT (site ATGATTACTAG),0.385
19,ATGCAACCTTGGGTTCTAACCTGTTGCCT (site ATGCAAACTAG),0.216
20,ATGCAACCTTGGGTTCTAACCTGTTGCCT (site ATGCAACCTAG),0.827
21,ATGCAACCTTGGGTTCTAACCTGTTGCCT (site ATGCAAGCTAG),0.362
22,ATGCAACCTTGGGTTCTAACCTGTTGCCT (site ATGCAATCTAG),0.293

row,Sequence,recombinant barcode read abundance (log10)
1,ATGCACCCTTGGGTTCTAACCTGTTGCCT (site ATGCACCCTAG),2
2,ATGCACCCTTGGGTTCTAACCTGTTGCCT (site ATGCGCCCTAG),0.977
3,ATGCCGACTTGGGTTCTAACCTGTTGCCT (site ATGCCAACTAG),0.101
4,ATGCCGACTTGGGTTCTAACCTGTTGCCT (site ATGCCCACTAG),0.0898
5,ATGCCGACTTGGGTTCTAACCTGTTGCCT (site ATGCCGACTAG),1.02
6,ATGCCGACTTGGGTTCTAACCTGTTGCCT (site ATGCCTACTAG),0.11
7,ATGCGAGCTTGGGTTCTAACCTGTTGCCG (site ATGCGAGCTCA),0.177
8,ATGCGAGCTTGGGTTCTAACCTGTTGCCG (site ATGCGAGCTCC),0.358
9,ATGCGAGCTTGGGTTCTAACCTGTTGCCG (site ATGCGAGCTCG),0.815
10,ATGCGAGCTTGGGTTCTAACCTGTTGCCG (site ATGCGAGCTCT),0.404
11,ATGCGCCCTTGGGTTCTAACCTGTTGCCT (site ATGCACCCTAG),0.43
12,ATGCGCCCTTGGGTTCTAACCTGTTGCCT (site ATGCGCCCTAG),0.717
13,ATGCTACCTTGGGTTCTAACCTGTTGCGG (site ATGCTACCTCC),1.2
14,ATGCTACCTTGGGTTCTAACCTGTTGCGG (site CACGGGGCTAG),0.0226
15,ATGGGAGCTTGGGTTCTAACCTGTTGCGA (site AGGGGAGCTCC),0.627
16,ATGGGAGCTTGGGTTCTAACCTGTTGCGA (site ATGGGAGCTTC),1.14
17,ATGGTGCCTTGGGTTCTAACCTGTTGCCT (site ATGGTGACTAG),0.098
18,ATGGTGCCTTGGGTTCTAACCTGTTGCCT (site ATGGTGCCTAG),2.65
19,ATGGTGCCTTGGGTTCTAACCTGTTGCCT (site ATGGTGGCTAG),0.417
20,ATGGTGCCTTGGGTTCTAACCTGTTGCCT (site ATGGTGTCTAG),2.03
21,ATGTAGGCTTGGGTTCTAACCTGTTGCCT (site ATGTAGGCTAG),0.137
22,ATGTAGGCTTGGGTTCTAACCTGTTGCCT (site ATGTTAGCTAG),0.127
